Laboratory results as given in patent US20240384268A1, “Oligonucleotides” (Hudson Institute of Medical Research, priority 2021, published 2024).
In the oligonucleotide strings, read from the 5' end, every base follows the letter of its sugar. An asterisk marks phosphorothioate; unmarked linkages are phosphodiester. Other units and linkages are bracketed, terminal groups are in braces. A string of capitals states the bases alone. d = 2'-deoxy (DNA); m = 2'-O-methyl

Biological target: T1, human TLR7 (Homo sapiens, UniProt Q9NYK1)
T1 construct: HA; host or cells: 293XL-hTLR7-HA (HEK293)
T1 sequence (Q9NYK1 27-1049): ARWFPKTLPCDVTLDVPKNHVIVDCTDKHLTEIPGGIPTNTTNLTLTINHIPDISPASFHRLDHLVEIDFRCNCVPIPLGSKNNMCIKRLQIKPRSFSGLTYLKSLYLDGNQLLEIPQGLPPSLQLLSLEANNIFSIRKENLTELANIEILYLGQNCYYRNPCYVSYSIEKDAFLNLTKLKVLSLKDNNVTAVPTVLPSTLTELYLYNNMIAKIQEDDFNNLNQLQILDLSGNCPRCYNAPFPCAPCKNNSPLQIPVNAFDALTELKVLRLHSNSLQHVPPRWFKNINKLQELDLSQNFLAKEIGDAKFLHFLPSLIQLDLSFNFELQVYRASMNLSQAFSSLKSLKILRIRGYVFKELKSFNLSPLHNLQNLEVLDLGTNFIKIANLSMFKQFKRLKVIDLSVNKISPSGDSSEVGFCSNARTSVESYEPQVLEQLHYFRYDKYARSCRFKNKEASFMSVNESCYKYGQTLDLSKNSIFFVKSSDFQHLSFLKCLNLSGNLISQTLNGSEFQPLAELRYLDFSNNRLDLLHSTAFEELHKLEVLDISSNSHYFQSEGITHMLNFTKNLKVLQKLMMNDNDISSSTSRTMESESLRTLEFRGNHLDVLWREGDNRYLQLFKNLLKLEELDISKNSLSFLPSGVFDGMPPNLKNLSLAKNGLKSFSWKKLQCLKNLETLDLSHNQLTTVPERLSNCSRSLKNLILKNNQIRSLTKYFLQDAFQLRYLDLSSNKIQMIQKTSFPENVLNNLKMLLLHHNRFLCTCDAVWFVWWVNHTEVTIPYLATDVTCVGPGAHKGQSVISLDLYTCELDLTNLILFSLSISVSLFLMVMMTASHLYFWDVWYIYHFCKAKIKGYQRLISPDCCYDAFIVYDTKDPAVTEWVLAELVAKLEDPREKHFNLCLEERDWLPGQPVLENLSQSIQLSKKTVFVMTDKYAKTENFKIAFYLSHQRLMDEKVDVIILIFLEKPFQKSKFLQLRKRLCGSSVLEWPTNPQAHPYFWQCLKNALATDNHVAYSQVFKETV
Assay: HEK-TLR7 NF-κB-luciferase reporter, R848 stimulation
Assay type: cell-based
Settings: for TLR7 100 nM (averaged NF-κB-Luciferase level relative to R848 condition): ASO 100 nM; for TLR7 100 nM (averaged NF-κB-Luciferase level relative to R848 condition) / TLR7 500 nM (averaged NF-κB-Luciferase level relative to R848 condition): relative to R848 only, given as fraction; for TLR7 500 nM (averaged NF-κB-Luciferase level relative to R848 condition): ASO 500 nM; for TLR7 400 nM: 3mer 2'OMe ASO at 400 nM; for TLR7 400 nM / TLR7 2 uM: value relative to Ligand only = 1.000, NT = 0.000; for TLR7 2 uM: 3mer 2'OMe ASO at 2 uM; for inhibition of TLR7 by 3-mer 2′OMe oligos (in words): 400 nM and 2 μM 3-mer, ~30 min, R848 1 μg/ml; for IC50: oligo ~30-50 min before 1 μg/ml R848 overnight, read-out: IC50 (R848 sensing by TLR7)

Substance	TLR7 400 nM (HEK-TLR7)	TLR7 2 uM (HEK-TLR7)	also measured
TGCACACTTCGTACCC (antisense; LNA-modified, pattern not given here) [CAMSAP1-4916 LNA V1]	–	–	TLR7 100 nM (averaged NF-κB-Luciferase level relative to R848 condition): 0.806; TLR7 500 nM (averaged NF-κB-Luciferase level relative to R848 condition): 0.299
GCATCCACCACGTCGT (antisense; LNA-modified, pattern not given here) [EGFR-3267 LNA V1]	–	–	TLR7 100 nM (averaged NF-κB-Luciferase level relative to R848 condition): 0.555; TLR7 500 nM (averaged NF-κB-Luciferase level relative to R848 condition): 0.085
CCATCCATGAGGTCCT (antisense; LNA-modified, pattern not given here) [CTNN2B-2545 LNA V1]	–	–	TLR7 100 nM (averaged NF-κB-Luciferase level relative to R848 condition): 0.992; TLR7 500 nM (averaged NF-κB-Luciferase level relative to R848 condition): 0.644
GCCATGTTTCTTCTTG (antisense; LNA-modified, pattern not given here) [MB21D1-1248 LNA KL]	–	–	TLR7 100 nM (averaged NF-κB-Luciferase level relative to R848 condition): 0.816; TLR7 500 nM (averaged NF-κB-Luciferase level relative to R848 condition): 0.021
mAmUmC (mA*mU*mC) [AUC, 3-mer 2′OMe PS oligo]	0.950	0.430	inhibition of TLR7 by 3-mer 2′OMe oligos (in words) (HEK-TLR7): inhibiting TLR7
CUA (mC*mU*mA)	1.388	0.953	–
dA*dC*dA (DNA ACA; listed as RNA, chemistry not fully specified)	1.234	0.831	–
CCU (mC*mC*mU)	1.210	0.880	–
GTATCGAAAGAGTCTG (antisense; LNA-modified, pattern not given here) [EGFR-3908 LNA KL]	–	–	TLR7 100 nM (averaged NF-κB-Luciferase level relative to R848 condition): 0.562; TLR7 500 nM (averaged NF-κB-Luciferase level relative to R848 condition): 0.113
TGGCCTCCCATCTCCT (antisense; LNA-modified, pattern not given here) [HPRT LNA-329 V1]	–	–	TLR7 100 nM (averaged NF-κB-Luciferase level relative to R848 condition): 0.877; TLR7 500 nM (averaged NF-κB-Luciferase level relative to R848 condition): 0.217
GCAGGCTCAGTGATGT (antisense; LNA-modified, pattern not given here) [CTNN2B-1642 LNA V1]	–	–	TLR7 100 nM (averaged NF-κB-Luciferase level relative to R848 condition): 0.676; TLR7 500 nM (averaged NF-κB-Luciferase level relative to R848 condition): 0.189
UUG (listed as RNA, chemistry not fully specified)	0.945	1.074	–
dA*dA*dA (DNA AAA; listed as DNA, chemistry not fully specified)	1.352	0.867	–
TGATGGCCTCCCATCT (antisense; LNA-modified, pattern not given here) [HPRT LNA-332 V1]	–	–	TLR7 100 nM (averaged NF-κB-Luciferase level relative to R848 condition): 0.657; TLR7 500 nM (averaged NF-κB-Luciferase level relative to R848 condition): 0.153
AUG (mA*mU*mG)	0.987	0.602	–
GTTCAGTCCTGTCCAT (antisense; LNA-modified, pattern not given here) [HPRT LNA-292 V1]	–	–	TLR7 100 nM (averaged NF-κB-Luciferase level relative to R848 condition): 0.456; TLR7 500 nM (averaged NF-κB-Luciferase level relative to R848 condition): 0.114
UCC (mU*mC*mC)	1.166	0.958	–
dA*dA*dG (DNA AAG; listed as DNA, chemistry not fully specified)	1.247	0.876	–
mGmAmU (mG*mA*mU) [GAU, 3-mer 2′OMe PS oligo]	1.406	0.580	inhibition of TLR7 by 3-mer 2′OMe oligos (in words) (HEK-TLR7): selectively inhibited TLR7 sensing; IC50 (HEK-TLR7): 300 nM
TCGTAGTTGCTTCCTA (antisense; LNA-modified, pattern not given here) [MB21D1-1181 LNA KL]	–	–	TLR7 100 nM (averaged NF-κB-Luciferase level relative to R848 condition): 0.380; TLR7 500 nM (averaged NF-κB-Luciferase level relative to R848 condition): 0.198
mUmCmG (antisense mU*mC*mG) [660-3b]	0.979	0.982	–
UAU (mU*mA*mU)	1.086	0.935	–
mC*mG*mU*T*T*C*C*C*C*C*C*C*C*C*C*C*C*C*C*C (CGUTTCCCCCCCCCCCCCCC; antisense; sugars from the 5' end m3 d17, all phosphorothioate, methylation of C not given here) [[C2]Mut1-v3-dC]	–	–	inhibition of R848 sensing by TLR7, short pre-treatment (in words) (HEK-TLR7, 100-500 nM oligo 20-50 min before R848 1 μg/ml): significantly altered TLR7 inhibition
mUmGmA (mU*mG*mA) [UGA, 3-mer 2′OMe PS oligo]	1.126	0.831	–

Substance	TLR7 400 nM (HEK-TLR7)	TLR7 2 uM (HEK-TLR7)	also measured
UUA (mU*mU*mA)	0.997	1.042	–
GATAGCACCTTCAGCA (antisense; LNA-modified, pattern not given here) [CTNN2B-1294 LNA KL]	–	–	TLR7 100 nM (averaged NF-κB-Luciferase level relative to R848 condition): 0.434; TLR7 500 nM (averaged NF-κB-Luciferase level relative to R848 condition): 0.049
UGC (mU*mG*mC)	1.057	0.782	–
dC*dC*dA (CCA; listed as DNA, chemistry not fully specified)	1.270	0.780	–
CUG (mC*mU*mG)	1.405	0.804	–
CGU (mC*mG*mU)	1.372	0.963	–
CUC (mC*mU*mC)	1.288	0.984	–
mUmCmA (mU*mC*mA) [UCA, 3-mer 2′OMe PS oligo]	1.122	0.819	–
dC*dC*dG (CCG; listed as DNA, chemistry not fully specified)	1.227	1.006	–
UUU (mU*mU*mU)	0.861	1.084	–
mCmUmU (antisense mC*mU*mU) [660-3]	1.277	0.913	–
dA*dG*dA (DNA AGA; listed as DNA, chemistry not fully specified)	1.219	0.795	–
AAU (antisense mA*mA*mU)	1.340	0.888	–
AUU (mA*mU*mU)	1.221	0.700	–
dC*dA*dA (CAA; listed as DNA, chemistry not fully specified)	1.175	0.787	–
dC*dC*dC (CCC; listed as DNA, chemistry not fully specified)	1.196	0.993	–
UCU (mU*mC*mU)	1.196	0.956	–
CAU (mC*mA*mU)	1.288	0.995	–
GTCTTGGCTTCGTGGA (antisense; LNA-modified, pattern not given here) [MB21D1-522 LNA V1]	–	–	TLR7 100 nM (averaged NF-κB-Luciferase level relative to R848 condition): 0.652; TLR7 500 nM (averaged NF-κB-Luciferase level relative to R848 condition): 0.056
UGU (mU*mG*mU)	1.108	0.984	–
mG*mC*mG*mG*mU*A*T*C*C*A*T*G*T*C*C*mC*mA*mG*mG*mC (mG*mC*mG*mG*mU*dA*dT*dC*dC*dA*dT*dG*dT*dC*dC*mC*mA*mG*mG*mC; antisense) [C2-Mut1]	–	–	IC50 (HEK-TLR7): 44 nM
GCCATCCACTTGATAG (antisense; LNA-modified, pattern not given here) [EGFR-2874 LNA V1]	–	–	TLR7 100 nM (averaged NF-κB-Luciferase level relative to R848 condition): 0.671; TLR7 500 nM (averaged NF-κB-Luciferase level relative to R848 condition): 0.123
UAA (mU*mA*mA)	1.126	1.029	–
dC*dG*dA (CGA; listed as DNA, chemistry not fully specified)	1.112	0.907	–
